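Five concentrations, 48 hours, 96-well plates. TGI denotes the concentration required for complete inhibition of growth.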
Tests used:
Assay in all cases: DTP human tumour cell line panel, 48 h
[1] = system: CAKI-1 renal
[2] = system: HCC-2998 colon
[3] = system: HCT-116 colon
[4] = system: HT29 colon
[5] = system: LOX IMVI melanoma
[6] = system: MOLT-4 leukemia
[7] = system: OVCAR-3 ovarian
[8] = system: OVCAR-5 ovarian
[9] = system: SN12C renal
[10] = system: SW-620 colon
[11] = system: U251 CNS
[12] = system: UACC-62 melanoma
[13] = system: MDA-MB-231 breast
[14] = system: MDA-MB-435
[15] = system: NCI/ADR-RES ovarian

| Structure (SMILES) | TGI [1] [µM] | TGI [2] [µM] | TGI [3] [µM] | TGI [4] [µM] | TGI [5] [µM] | TGI [6] [µM] | TGI [7] [µM] | TGI [8] [µM] | TGI [9] [µM] | TGI [10] [µM] | TGI [11] [µM] | TGI [12] [µM] | TGI [13] [µM] | TGI [14] [µM] | TGI [15] [µM] |
| --- | --- | --- | --- | --- | --- | --- | --- | --- | --- | --- | --- | --- | --- | --- | --- |
| NC(CCC(=O)NC(CSC(=O)N(O)c1ccccc1)C(=O)NCC(=O)O)C(=O)O (stereo unspecified) | > 1000 | > 1000 | > 1000 | > 1000 | > 1000 | > 1000 | > 1000 | > 1000 | > 1000 | > 1000 | > 1000 | > 1000 | – | – | – |
| CN(C)CC1CCCC(CN(C)C)C1=NOC(=O)c1ccccc1 (stereo unspecified) | – | > 100 | > 100 | > 100 | > 100 | > 100 | > 100 | > 100 | > 100 | > 100 | > 100 | > 100 | – | – | – |
| CC(O)c1ccc[n+](Cc2ccccc2)c1 (stereo unspecified) | > 400 | > 400 | > 400 | > 400 | > 400 | > 400 | > 400 | > 400 | > 400 | > 400 | > 400 | > 400 | – | – | – |
| CC(=O)N(C(C)=O)n1c(-c2ccccc2)n[nH]c1=O | – | > 100 | > 100 | > 100 | > 100 | > 100 | > 100 | > 100 | > 100 | > 100 | > 100 | > 100 | > 100 | > 100 | > 100 |
| CSc1sc(=S)sc1C(=O)N(C)c1ccccc1 | – | – | > 100 | > 100 | > 100 | > 100 | > 100 | > 100 | > 100 | > 100 | > 100 | > 100 | – | – | – |
| Cc1ccc(C)n1-c1ccccc1C1C=CN(C(=O)OC(C)(C)C)C=C1 | > 100 | 34 | 45.1 | 27.7 | 37.4 | 68.7 | 46.8 | > 100 | > 100 | 41.7 | 77.8 | 77.9 | 53.3 | > 100 | > 100 |
| COc1c(Br)cc(/C=C(\C#N)c2cccnc2)cc1Br | > 100 | > 100 | > 100 | > 100 | – | > 100 | > 100 | > 100 | > 100 | > 100 | > 100 | > 100 | – | – | > 100 |
| Nc1ncnc2c1ncn2C1OC(CO)C(O)C(O)C1O (stereo unspecified) | > 100 | > 100 | > 100 | > 100 | > 100 | > 100 | > 100 | > 100 | > 100 | > 100 | > 100 | – | > 100 | > 100 | > 100 |
| CCCCCCCCCCCCCCCCOCC(CP(=O)([O-])OCC[n+]1ccccc1)OC (stereo unspecified) | 22.2 | 7.4 | 22.1 | 15.9 | – | 18.9 | 27.1 | – | 24.9 | 31.6 | – | 24.5 | – | – | – |
| NC(=O)C1Cc2cc3c(cc21)OCO3 (stereo unspecified) | > 100 | > 100 | > 100 | > 100 | > 100 | – | > 100 | > 100 | – | – | – | > 100 | > 100 | – | > 100 |
| CC(C)C(Sc1nc(-c2ccccc2)c(-c2ccccc2)[nH]1)C(=O)NN (stereo unspecified) | > 100 | – | > 100 | > 100 | > 100 | > 100 | > 100 | > 100 | > 100 | > 100 | > 100 | – | – | – | – |
| COC(=O)NC12CC3CC(CC(F)(C3)C1)C2 | – | > 100 | > 100 | > 100 | > 100 | > 100 | > 100 | > 100 | – | > 100 | > 100 | > 100 | – | – | – |
| CC(=O)C(CN(Cc1ccccc1)Cc1ccccc1)C(c1ccccc1)c1c(O)c2ccccc2oc1=O (stereo unspecified) | > 100 | – | > 100 | > 100 | > 100 | – | > 100 | > 100 | > 100 | > 100 | > 100 | > 100 | – | – | – |
| O=C(O)CCc1cccc2c1oc1c(CCC(=O)O)cccc12 | > 100 | > 100 | > 100 | > 100 | > 100 | > 100 | > 100 | > 100 | > 100 | > 100 | > 100 | > 100 | – | – | – |
| N#CCCN(c1ccc(C=Nc2ccccc2Cl)cc1)S(=O)(=O)c1ccccc1 | > 100 | > 100 | > 100 | > 100 | > 100 | > 100 | > 100 | > 100 | > 100 | > 100 | > 100 | > 100 | – | – | – |
| COc1ccc(N2C(=O)C3c4[nH]c5ccccc5c4C4CC(C)CC(C)C4C3C2=O)cc1 (stereo unspecified) | – | > 100 | > 100 | > 100 | – | > 100 | – | – | > 100 | > 100 | > 100 | > 100 | – | – | – |

From PubChem BioAssay (NCI)
